Columns and labels:
bedstraw = test: Test B pre/postemergence bedstraw; format: in vivo, Galium aparine; settings: Postemergence
How it was run: (§1)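 Response is a visual 0-to-10 score relative to untreated plants, where 0 means no effect and 10 means complete control, taken twelve to sixteen days after application. Treatments went onto soil at planting and onto foliage of 1- to 4-leaf plants, using a surfactant-containing non-phytotoxic solvent.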

surinam grass = test: Test B pre/postemergence surinam grass; format: in vivo, Brachiaria decumbens
How it was run: as §1

cocklebur = test: Test B pre/postemergence cocklebur; format: in vivo, Xanthium strumarium
How it was run: as §1

corn = test: Test B pre/postemergence corn; format: in vivo, Zea mays
How it was run: as §1

giant foxtail = test: Test B pre/postemergence giant foxtail; format: in vivo, Setaria faberii
How it was run: as §1

pigweed = test: Test B pre/postemergence pigweed; format: in vivo, Amaranthus retroflexus
How it was run: as §1

rape = test: Test B pre/postemergence rape; format: in vivo, Brassica napus
How it was run: as §1

soybean = test: Test B pre/postemergence soybean; format: in vivo, Glycine max
How it was run: as §1

sugar beet = test: Test B pre/postemergence sugar beet; format: in vivo, Beta vulgaris
How it was run: as §1

velvetleaf = test: Test B pre/postemergence velvetleaf; format: in vivo, Abutilon theophrasti
How it was run: as §1

wheat = test: Test B pre/postemergence wheat; format: in vivo, Triticum aestivum
How it was run: as §1

wild oat = test: Test B pre/postemergence wild oat; format: in vivo, Avena fatua
How it was run: as §1

purple nutsedge = test: Test B pre/postemergence purple nutsedge; format: in vivo, Cyperus rotundus
How it was run: as §1

rice = test: Test B flood test rice; format: in vivo, Oryza sativa
How it was run: (§2)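 Flood test on plants grown to the 2-leaf stage; treated plants kept in greenhouse twelve to sixteen days, then visually rated against controls on a 0 (no effect) to 10 (complete control) scale.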

smallflower flatsedge = test: Test B flood test smallflower flatsedge; format: in vivo, Cyperus difformis
How it was run: as §2

duck salad = test: Test B flood test duck salad; format: in vivo, Heteranthera limosa
How it was run: as §2

[1] = Postemergence, Rate 62 g/ha, scale 0 to 10, 0 is no effect, 10 is complete control
[2] = Postemergence, Rate 125 g/ha, scale of 0 to 10 where 0 is no effect and 10 is complete control
[3] = Postemergence, Rate 250 g/ha, scale of 0 to 10, 0 is no effect, 10 is complete control
[4] = Postemergence, Rate 500 g/ha, scale of 0 to 10 where 0 is no effect and 10 is complete control
[5] = Preemergence, Rate 62 g/ha, scale 0 to 10 (0 no effect, 10 complete control)
[6] = Preemergence, Rate 125 g/ha, scale of 0 to 10 where 0 is no effect and 10 is complete control
[7] = Preemergence, Rate 250 g/ha, scale 0 to 10 (0 no effect, 10 complete control)
[8] = Preemergence, Rate 500 g/ha, scale of 0 to 10 where 0 is no effect and 10 is complete control
[9] = Rate 62 g/ha, flood test species, Pre-emergence, visual evaluation after twelve to sixteen days
[10] = Rate 125 g/ha, under heading Pre-emergence, flood test species, visual evaluation after twelve to sixteen days
[11] = Rate 250 g/ha, Pre-emergence (flood test species), scale 0 to 10, 0 is no effect, 10 is complete control
[12] = Rate 500 g/ha, Pre-emergence section of Table B, 0 to 10 scale (0 no effect, 10 complete control)

CCOC(Cn1c(=O)on(C(=O)N(c2ccccc2)C(C)C)c1=O)OCC [Compound 632]
Plant response rating, Bedstraw (bedstraw; Rate 62 g/ha, scale 0 to 10, 0 is no effect, 10 is complete control): 0
Plant response rating, Bedstraw (bedstraw; Rate 125 g/ha, scale of 0 to 10 where 0 is no effect and 10 is complete control): 0
Bedstraw plant response rating (bedstraw; Rate 250 g/ha, scale of 0 to 10, 0 is no effect, 10 is complete control): 0
Plant response rating, B. signalgrass (surinam grass; [1]): 0
Plant response rating, B. signalgrass (surinam grass; [2]): 0
B. signalgrass plant response rating (surinam grass; [3]): 2
Plant response rating, B. signalgrass (surinam grass; [4]): 6
B. signalgrass plant response rating (surinam grass; [5]): 0
B. signalgrass plant response rating (surinam grass; [6]): 3
Plant response rating, B. signalgrass (surinam grass; [7]): 6
Plant response rating, B. signalgrass (surinam grass; [8]): 10
Plant response rating, Cocklebur (cocklebur; [1]): 0
Plant response rating, Cocklebur (cocklebur; [2]): 0
Cocklebur plant response rating (cocklebur; [3]): 0
Plant response rating, Cocklebur (cocklebur; [4]): 0
Cocklebur plant response rating (cocklebur; [5]): 0
Cocklebur plant response rating (cocklebur; [6]): 0
Plant response rating, Cocklebur (cocklebur; [7]): 0
Plant response rating, Cocklebur (cocklebur; [8]): 0
Plant response rating, Corn (corn; [1]): 0
Plant response rating, Corn (corn; [2]): 3
Corn plant response rating (corn; [3]): 3
Plant response rating, Corn (corn; [4]): 5
Corn plant response rating (corn; [5]): 0
Corn plant response rating (corn; [6]): 4
Plant response rating, Corn (corn; [7]): 4
Plant response rating, Corn (corn; [8]): 5
Plant response rating, Giant foxtail (giant foxtail; [1]): 3
Plant response rating, Giant foxtail (giant foxtail; [2]): 7
Giant foxtail plant response rating (giant foxtail; [3]): 8
Plant response rating, Giant foxtail (giant foxtail; [4]): 9
Giant foxtail plant response rating (giant foxtail; [5]): 8
Giant foxtail plant response rating (giant foxtail; [6]): 10
Plant response rating, Giant foxtail (giant foxtail; [7]): 10
Plant response rating, Giant foxtail (giant foxtail; [8]): 10
Plant response rating, Redroot pigweed (pigweed; [1]): 0
Plant response rating, Redroot pigweed (pigweed; [2]): 0
Redroot pigweed plant response rating (pigweed; [3]): 0
Redroot pigweed plant response rating (pigweed; [5]): 0
Redroot pigweed plant response rating (pigweed; [6]): 0
Plant response rating, Redroot pigweed (pigweed; [7]): 6
Plant response rating, Redroot pigweed (pigweed; [8]): 10
Plant response rating, Rape (rape; [1]): 0
Plant response rating, Rape (rape; [2]): 0
Rape plant response rating (rape; [3]): 0
Plant response rating, Rape (rape; [4]): 0
Rape plant response rating (rape; [5]): 0
Rape plant response rating (rape; [6]): 0
Plant response rating, Rape (rape; [7]): 0
Plant response rating, Rape (rape; [8]): 4
Plant response rating, Soybean (soybean; [1]): 1
Plant response rating, Soybean (soybean; [2]): 2
Soybean plant response rating (soybean; [3]): 4
Soybean plant response rating (soybean; [5]): 0
Soybean plant response rating (soybean; [6]): 0
Plant response rating, Soybean (soybean; [7]): 0
Plant response rating, Soybean (soybean; [8]): 0
Plant response rating, Sugarbeets (sugar beet; [1]): 0
Plant response rating, Sugarbeets (sugar beet; [2]): 0
Sugarbeets plant response rating (sugar beet; [3]): 0
Sugarbeets plant response rating (sugar beet; [5]): 0
Sugarbeets plant response rating (sugar beet; [6]): 0
Plant response rating, Sugarbeets (sugar beet; [7]): 0
Plant response rating, Sugarbeets (sugar beet; [8]): 0
Plant response rating, Velvetleaf (velvetleaf; [1]): 0
Plant response rating, Velvetleaf (velvetleaf; [2]): 0
Velvetleaf plant response rating (velvetleaf; [3]): 0
Velvetleaf plant response rating (velvetleaf; [5]): 0
Velvetleaf plant response rating (velvetleaf; [6]): 1
Plant response rating, Velvetleaf (velvetleaf; [7]): 6
Plant response rating, Velvetleaf (velvetleaf; [8]): 7
Plant response rating, Wheat (wheat; [1]): 0
Plant response rating, Wheat (wheat; [2]): 0
Wheat plant response rating (wheat; [3]): 0
Wheat plant response rating (wheat; [5]): 0
Wheat plant response rating (wheat; [6]): 0
Plant response rating, Wheat (wheat; [7]): 0
Plant response rating, Wheat (wheat; [8]): 0
Plant response rating, Wild oats (wild oat; [1]): 0
Plant response rating, Wild oats (wild oat; [2]): 0
Wild oats plant response rating (wild oat; [3]): 0
Wild oats plant response rating (wild oat; [5]): 0
Wild oats plant response rating (wild oat; [6]): 2
Plant response rating, Wild oats (wild oat; [7]): 3
Plant response rating, Wild oats (wild oat; [8]): 3
Plant response rating, Nutsedge (purple nutsedge; [1]): 0
Plant response rating, Nutsedge (purple nutsedge; [2]): 0
Nutsedge plant response rating (purple nutsedge; [3]): 0
Nutsedge plant response rating (purple nutsedge; [5]): 0
Nutsedge plant response rating (purple nutsedge; [6]): 0
Plant response rating, Nutsedge (purple nutsedge; [7]): 0
Plant response rating, Nutsedge (purple nutsedge; [8]): 0
Plant response rating, Rice (0 to 10 scale, 0 is no effect, 10 is complete control) (rice; [9]): 0
Rice plant response rating (0 to 10 scale, 0 is no effect, 10 is complete control) (rice; [10]): 0
Rice plant response rating (rice; [11]): 0
Rice plant response rating (rice; [12]): 0
Plant response rating, S. Flatsedge (0 to 10 scale, 0 is no effect, 10 is complete control) (smallflower flatsedge; [9]): 0
S. Flatsedge plant response rating (0 to 10 scale, 0 is no effect, 10 is complete control) (smallflower flatsedge; [10]): 0
S. Flatsedge plant response rating (smallflower flatsedge; [11]): 0
S. Flatsedge plant response rating (smallflower flatsedge; [12]): 0
Plant response rating, Ducksalad (0 to 10 scale, 0 is no effect, 10 is complete control) (duck salad; [9]): 0
Ducksalad plant response rating (0 to 10 scale, 0 is no effect, 10 is complete control) (duck salad; [10]): 0
Ducksalad plant response rating (duck salad; [11]): 0
Ducksalad plant response rating (duck salad; [12]): 0

— patent US6737383B1, “Herbicidal oxadiazolidines” (priority 1999, dated 2004)
